Assay results: ChEMBL document CHEMBL1201862, “PubChem BioAssay data set” (2004)
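Each compound was tested at five concentrations against cells in 96-well plates for 48 hours. At the GI50, growth is halved.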 Calls of active or inactive are those of the source. No stated cut-off is given here; in the data, active = GI50 up to about 1.1 µM and inactive = higher.

Key:
Assay in all cases: growth of human tumour cells (NCI), 48 h
RPMI-8226 = system: RPMI-8226
HCC 2998 = system: HCC 2998
RXF 393 = system: RXF 393
CCRF-CEM = system: CCRF-CEM
SNB-78 = system: SNB-78
SK-MEL-28 = system: SK-MEL-28
SF-295 = system: SF-295
Malme-3M = system: Malme-3M
MOLT-4 = system: MOLT-4
HCT-15 = system: HCT-15
OVCAR-8 = system: OVCAR-8
OVCAR-4 = system: OVCAR-4
SK-OV-3 = system: SK-OV-3
HOP-62 = system: HOP-62
SK-MEL-5 = system: SK-MEL-5
UACC-257 = system: UACC-257
EKVX = system: EKVX
NCI-H460 = system: NCI-H460
K562 = system: K562
NCI-H226 = system: NCI-H226
SK-MEL-2 = system: SK-MEL-2
HOP-92 = system: HOP-92
SN12C = system: SN12C
DMS-273 = system: DMS-273
NCI-H23 = system: NCI-H23
UACC-62 = system: UACC-62
HOP-18 = system: HOP-18
UO-31 = system: UO-31
SF-268 = system: SF-268
NCI/ADR-RES = system: NCI/ADR-RES
KM-20L2 = system: KM-20L2
LOX IMVI = system: LOX IMVI
COLO 205 = system: COLO 205
A549 = system: A549
OVCAR-3 = system: OVCAR-3
DLD-1 = system: DLD-1
XF498 = system: XF498
KM12 = system: KM12
CAKI-1 = system: CAKI-1
M19-MEL = system: M19-MEL
A498 = system: A498
HL-60 = system: HL-60
NCI-H522 = system: NCI-H522
SW-620 = system: SW-620
SNB-75 = system: SNB-75
HCT-116 = system: HCT-116
IGROV-1 = system: IGROV-1
HT-29 = system: HT-29
U-251 = system: U-251
SNB-19 = system: SNB-19
MCF7 = system: MCF7
SF-539 = system: SF-539
DMS-114 = system: DMS-114
OVCAR-5 = system: OVCAR-5
786-0 = system: 786-0
ACHN = system: ACHN
TK-10 = system: TK-10

With `CCCCCn1cc2c3c(cccc31)C1C=C(C)CN(C)[C@@H]1C2.Cc1ccc(C(=O)OC(C(=O)O)C(OC(=O)c2ccc(C)cc2)C(=O)O)cc1` (centres undefined) the GI50 (RPMI-8226) was 2.64 µM (inactive), the GI50 (HCC 2998) was 2.6 µM (inactive) and the GI50 (RXF 393) was 5.78 µM (inactive). The GI50 (CCRF-CEM) was 4.25 µM (inactive), the GI50 (SNB-78) was 13.7 µM (inactive) and the GI50 (SK-MEL-28) was 6.93 µM (inactive). The GI50 (SF-295) was 6.17 µM (inactive), the GI50 (Malme-3M) was 2.56 µM (inactive) and the GI50 (MOLT-4) was 4.24 µM (inactive). The GI50 (HCT-15) was 4.58 µM, the GI50 (OVCAR-8) was 12.3 µM (inactive) and the GI50 (OVCAR-4) was 5.96 µM (inactive). The GI50 (SK-OV-3) was 9.93 µM (inactive), the GI50 (HOP-62) was 12.7 µM (inactive) and the GI50 (SK-MEL-5) was 3.06 µM (inactive). The GI50 (UACC-257) was 4.21 µM (inactive), the GI50 (EKVX) was 10.8 µM (inactive) and the GI50 (NCI-H460) was 3.89 µM (inactive). The GI50 (K562) was 2.51 µM (inactive), the GI50 (NCI-H226) was 9.79 µM (inactive) and the GI50 (SK-MEL-2) was 9.18 µM (inactive). For the same molecule, the GI50 (HOP-92) was 1.6 µM (inactive), the GI50 (SN12C) was 13 µM (inactive) and the GI50 (DMS-273) was 3.92 µM (inactive). The GI50 (NCI-H23) was 3.37 µM (inactive), the GI50 (UACC-62) was 5.25 µM (inactive) and the GI50 (HOP-18) was 2.33 µM (inactive). For the same molecule, the GI50 (UO-31) was 3.86 µM (inactive), the GI50 (SF-268) was 11 µM (inactive) and the GI50 (NCI/ADR-RES) was 6.17 µM (inactive). For the same molecule, the GI50 (KM-20L2) was 3.83 µM (inactive), the GI50 (LOX IMVI) was 6.47 µM (inactive) and the GI50 (COLO 205) was 3.38 µM (inactive). For the same molecule, the GI50 (A549) was 9.33 µM (inactive), the GI50 (OVCAR-3) was 6.75 µM (inactive) and the GI50 (DLD-1) was 6.12 µM (inactive). The GI50 (XF498) was 2.67 µM (inactive), the GI50 (KM12) was 5.92 µM (inactive) and the GI50 (CAKI-1) was 5.69 µM (inactive). The GI50 (M19-MEL) was 4.48 µM (inactive), the GI50 (A498) was 8.83 µM (inactive) and the GI50 (HL-60) was 1.35 µM (inactive). The GI50 (NCI-H522) was 3.44 µM (inactive), the GI50 (SW-620) was 4.16 µM (inactive) and the GI50 (SNB-75) was 5.42 µM (inactive). For the same molecule, the GI50 (HCT-116) was 4.04 µM (inactive), the GI50 (IGROV-1) was 8.22 µM (inactive) and the GI50 (HT-29) was 3.4 µM (inactive). The GI50 (U-251) was 7.13 µM (inactive), the GI50 (SNB-19) was 10.4 µM (inactive) and the GI50 (MCF7) was 4.03 µM (inactive). For the same molecule, the GI50 (SF-539) was 9.95 µM (inactive), the GI50 (DMS-114) was 3.47 µM (inactive) and the GI50 (OVCAR-5) was 9.89 µM (inactive).

With `C/C=C1/C(=O)O[C@]23C=C[C@@H]4C(C(=O)OC)=CO[C@H](O[C@@H]12)[C@@H]43` [PLUMERICIN] the GI50 (RPMI-8226) was 0.423 µM (active), the GI50 (HCC 2998) was 2.68 µM (inactive) and the GI50 (RXF 393) was 0.55 µM (active). The GI50 (CCRF-CEM) was 0.341 µM (active), the GI50 (SNB-78) was 1.94 µM (inactive) and the GI50 (SK-MEL-28) was 1 µM (active). The GI50 (SF-295) was 2.46 µM (inactive), the GI50 (Malme-3M) was 1.93 µM (inactive) and the GI50 (MOLT-4) was 0.459 µM (active). The GI50 (HCT-15) was 0.671 µM, the GI50 (OVCAR-8) was 0.594 µM (active) and the GI50 (OVCAR-4) was 1.52 µM (inactive). For the same molecule, the GI50 (SK-OV-3) was 3.93 µM (inactive), the GI50 (HOP-62) was 6.38 µM (inactive) and the GI50 (SK-MEL-5) was 2.12 µM (inactive). The GI50 (UACC-257) was 0.592 µM (active), the GI50 (EKVX) was 1.3 µM (inactive) and the GI50 (NCI-H460) was 2.08 µM (inactive). For the same molecule, the GI50 (K562) was 0.652 µM (active), the GI50 (NCI-H226) was 2.44 µM (inactive) and the GI50 (SK-MEL-2) was 1.44 µM (inactive). For the same molecule, the GI50 (HOP-92) was 1.61 µM (inactive), the GI50 (SN12C) was 1.98 µM (inactive) and the GI50 (DMS-273) was 2.32 µM (inactive). The GI50 (NCI-H23) was 0.916 µM (active), the GI50 (UACC-62) was 0.815 µM (active) and the GI50 (HOP-18) was 4.67 µM (inactive). The GI50 (UO-31) was 3.12 µM (inactive), the GI50 (SF-268) was 1.28 µM (inactive) and the GI50 (NCI/ADR-RES) was 0.676 µM (active). The GI50 (KM-20L2) was 2.17 µM (inactive), the GI50 (LOX IMVI) was 0.336 µM (active) and the GI50 (COLO 205) was 1 µM (active). The GI50 (A549) was 3.47 µM (inactive), the GI50 (OVCAR-3) was 0.861 µM (active) and the GI50 (DLD-1) was 0.432 µM (active). For the same molecule, the GI50 (XF498) was 1.38 µM (inactive), the GI50 (KM12) was 2.28 µM (inactive) and the GI50 (CAKI-1) was 1.14 µM (inactive). The GI50 (M19-MEL) was 0.726 µM (active), the GI50 (A498) was 0.838 µM (active) and the GI50 (HL-60) was 0.24 µM (active). For the same molecule, the GI50 (NCI-H522) was 0.353 µM (active), the GI50 (SW-620) was 0.432 µM (active) and the GI50 (SNB-75) was 3.34 µM (inactive). The GI50 (HCT-116) was 0.451 µM (active), the GI50 (IGROV-1) was 1.19 µM (inactive) and the GI50 (HT-29) was 2.18 µM (inactive). For the same molecule, the GI50 (U-251) was 2.7 µM (inactive), the GI50 (SNB-19) was 3.56 µM (inactive) and the GI50 (MCF7) was 0.832 µM (active). The GI50 (SF-539) was 2.34 µM (inactive), the GI50 (DMS-114) was 1.12 µM (inactive) and the GI50 (OVCAR-5) was 3.66 µM (inactive).

With `CCS[C@H]1NC(=O)C1[C@H](C)O[Si](C)(C)C(C)(C)C` (some centres undefined) the GI50 (RPMI-8226) was 31.6 µM (inactive), the GI50 (RXF 393) was 52.8 µM (inactive) and the GI50 (SNB-78) was > 100 µM (inactive). For the same molecule, the GI50 (SK-MEL-28) was > 100 µM (inactive), the GI50 (SF-295) was > 100 µM (inactive) and the GI50 (Malme-3M) was > 100 µM (inactive). The GI50 (HCT-15) was > 100 µM, the GI50 (OVCAR-8) was > 100 µM (inactive) and the GI50 (OVCAR-4) was > 100 µM (inactive). The GI50 (HOP-62) was > 100 µM (inactive), the GI50 (UACC-257) was 48 µM (inactive) and the GI50 (EKVX) was > 100 µM (inactive). For the same molecule, the GI50 (NCI-H460) was > 100 µM (inactive), the GI50 (K562) was 34.3 µM (inactive) and the GI50 (SK-MEL-2) was > 100 µM (inactive). The GI50 (HOP-92) was 79.8 µM (inactive), the GI50 (SN12C) was > 100 µM (inactive) and the GI50 (DMS-273) was 97.7 µM (inactive). The GI50 (NCI-H23) was > 100 µM (inactive), the GI50 (UACC-62) was > 100 µM (inactive) and the GI50 (HOP-18) was > 100 µM (inactive). For the same molecule, the GI50 (SF-268) was > 100 µM (inactive), the GI50 (KM-20L2) was > 100 µM (inactive) and the GI50 (LOX IMVI) was 32.2 µM (inactive). The GI50 (COLO 205) was > 100 µM (inactive), the GI50 (A549) was 81.3 µM (inactive) and the GI50 (OVCAR-3) was > 100 µM (inactive). The GI50 (DLD-1) was > 100 µM (inactive), the GI50 (XF498) was > 100 µM (inactive) and the GI50 (KM12) was > 100 µM (inactive). For the same molecule, the GI50 (CAKI-1) was 74 µM (inactive), the GI50 (M19-MEL) was > 100 µM (inactive) and the GI50 (A498) was > 100 µM (inactive). The GI50 (SW-620) was > 100 µM (inactive), the GI50 (SNB-75) was > 100 µM (inactive) and the GI50 (HCT-116) was 86.1 µM (inactive). For the same molecule, the GI50 (786-0) was > 100 µM (inactive), the GI50 (ACHN) was > 100 µM (inactive) and the GI50 (IGROV-1) was > 100 µM (inactive). The GI50 (HT-29) was > 100 µM (inactive), the GI50 (U-251) was > 100 µM (inactive) and the GI50 (SNB-19) was > 100 µM (inactive). For the same molecule, the GI50 (SF-539) was > 100 µM (inactive), the GI50 (TK-10) was > 100 µM (inactive) and the GI50 (DMS-114) was 84.3 µM (inactive). For the same molecule, the GI50 (OVCAR-5) was 75.5 µM (inactive).
